Literature values, collected in patent US12440530B2, “Skin solution with solubilized bakuchiol” (Envy Medical, Inc., priority 2013, dated 2025).

Tests used:
facial acne vulgaris = details: in vivo

In the case of `C=C[C@@](C)(/C=C/c1ccc(O)cc1)CCC=C(C)C` [Bakuchiol, bakuchiol], the solubility in water is listed as “very insoluble in water”, the “inflammatory (papules, cysts) and noninflammatory (blackheads) lesions” value (facial acne vulgaris) is listed as “significant reductions” and the “study subjects with partial or total clearing of acne-related post inflammatory hyperpigmentation (PIH)” value (facial acne vulgaris) is listed as “Forty-five”.

In the case of `CC(C)=CCC[C@](C)(O)C1CC=C(C)CC1` (stereo partly shown) [bisabolol], the solubility in water is given as “very insoluble in water”.
